Reference: PubChem BioAssay (NCI)
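Test compounds were applied to cells in 96-well plates for 48 hours at 5 doses. At the GI50, growth is halved. TGI denotes the concentration required for complete inhibition of growth.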

What was measured:
Assay in all cases: DTP human tumour cell line panel, 48 h
PC-3 prostate = system: PC-3 prostate
IGROV1 ovarian = system: IGROV1 ovarian
MALME-3M melanoma = system: MALME-3M melanoma
HT29 colon = system: HT29 colon
HOP-62 NSCLC = system: HOP-62 NSCLC
CAKI-1 renal = system: CAKI-1 renal
COLO 205 colon = system: COLO 205 colon
UO-31 renal = system: UO-31 renal
DU-145 prostate = system: DU-145 prostate
M14 melanoma = system: M14 melanoma

O=C(CCC(C(=O)c1ccccc1)c1ccccc1)c1ccccc1 (stereo not drawn)
GI50 (PC-3 prostate): 7.94 µM
TGI (PC-3 prostate): > 100 µM
GI50 (IGROV1 ovarian): 32 µM
TGI (IGROV1 ovarian): > 100 µM
GI50 (MALME-3M melanoma): 5.51 µM
TGI (MALME-3M melanoma): 63.8 µM
GI50 (HT29 colon): 4.21 µM
TGI (HT29 colon): > 100 µM
GI50 (HOP-62 NSCLC): 25.5 µM
TGI (HOP-62 NSCLC): > 100 µM
GI50 (CAKI-1 renal): 5.7 µM
TGI (CAKI-1 renal): > 100 µM
GI50 (COLO 205 colon): 8.8 µM
TGI (COLO 205 colon): > 100 µM
GI50 (UO-31 renal): 7.28 µM
TGI (UO-31 renal): > 100 µM
GI50 (DU-145 prostate): 30.1 µM
TGI (DU-145 prostate): > 100 µM
GI50 (M14 melanoma): 6.82 µM
TGI (M14 melanoma): > 100 µM

O=C(NCC(O)CNC(=O)C(F)(F)F)C(F)(F)F
TGI (IGROV1 ovarian): > 100 µM
TGI (MALME-3M melanoma): > 100 µM
TGI (HT29 colon): > 100 µM
TGI (HOP-62 NSCLC): > 100 µM
TGI (CAKI-1 renal): > 100 µM
TGI (COLO 205 colon): > 100 µM
TGI (UO-31 renal): > 100 µM
TGI (M14 melanoma): > 100 µM

C=C1C(=O)O[C@@H]2C1C[C@@H](O)C(=C)CC/C=C(\C)CCC[C@H](C)[C@H]2OC(C)=O (stereo partly drawn)
GI50 (PC-3 prostate): 6.1 µM
TGI (PC-3 prostate): 22.9 µM
GI50 (IGROV1 ovarian): 5.17 µM
TGI (IGROV1 ovarian): 19.5 µM
GI50 (HT29 colon): 4.17 µM
TGI (HT29 colon): > 100 µM
GI50 (HOP-62 NSCLC): 15.4 µM
TGI (HOP-62 NSCLC): 30.7 µM
GI50 (CAKI-1 renal): 4.06 µM
TGI (CAKI-1 renal): 14.7 µM
GI50 (COLO 205 colon): 2.93 µM
TGI (COLO 205 colon): > 100 µM
GI50 (UO-31 renal): 5.18 µM
TGI (UO-31 renal): 18.4 µM
GI50 (DU-145 prostate): 11.9 µM
TGI (DU-145 prostate): 25.3 µM

CC(C)(C)OC(=O)NC(CO)c1cccc(OCc2ccccc2)c1 (stereo not drawn)
TGI (IGROV1 ovarian): > 100 µM
TGI (MALME-3M melanoma): > 100 µM
TGI (HT29 colon): > 100 µM
TGI (HOP-62 NSCLC): > 100 µM
TGI (CAKI-1 renal): > 100 µM
TGI (COLO 205 colon): > 100 µM
TGI (UO-31 renal): > 100 µM
TGI (M14 melanoma): > 100 µM

COc1ccc(OC(C(=O)O)c2ccccc2)c2c1CCCC2=O (stereo not drawn)
TGI (IGROV1 ovarian): > 100 µM
TGI (MALME-3M melanoma): > 100 µM
TGI (HT29 colon): > 100 µM
TGI (HOP-62 NSCLC): > 100 µM
TGI (CAKI-1 renal): > 100 µM
TGI (COLO 205 colon): > 100 µM
TGI (UO-31 renal): > 100 µM
TGI (M14 melanoma): > 100 µM

CNC(=O)c1cccc2c(Nc3ccc(NS(C)(=O)=O)cc3OC)c3cccc(C)c3nc12
TGI (IGROV1 ovarian): 13.2 µM
TGI (MALME-3M melanoma): 4.55 µM
TGI (HT29 colon): 3.69 µM
TGI (HOP-62 NSCLC): 0.155 µM
TGI (CAKI-1 renal): 1.41 µM
TGI (COLO 205 colon): 5.24 µM
TGI (UO-31 renal): 2.89 µM
TGI (M14 melanoma): 2.63 µM

O=c1oc2ccc(-n3c(=O)c4ccccc4c4ccccc4c3=O)cc2c2ccccc12
TGI (PC-3 prostate): > 100 µM
TGI (IGROV1 ovarian): > 100 µM
TGI (MALME-3M melanoma): > 100 µM
TGI (HT29 colon): > 100 µM
TGI (HOP-62 NSCLC): > 100 µM
TGI (CAKI-1 renal): > 100 µM
TGI (COLO 205 colon): > 100 µM
TGI (UO-31 renal): > 100 µM
TGI (M14 melanoma): > 100 µM

c1ccc2c(c1)[nH]c1c2nc2ncccn21
TGI (IGROV1 ovarian): > 100 µM
TGI (MALME-3M melanoma): > 100 µM
TGI (HT29 colon): > 100 µM
TGI (HOP-62 NSCLC): > 100 µM
TGI (CAKI-1 renal): > 100 µM
TGI (UO-31 renal): > 100 µM
TGI (M14 melanoma): > 100 µM

C=C(C)[C@@H]1CC[C@]2(CO)CC[C@]3(C)[C@H](CC[C@@H]4[C@@]5(C)CCC(NCCc6ccc(O)cc6)C(C)(C)[C@@H]5CC[C@]43C)[C@@H]12 (stereo partly drawn)
GI50 (PC-3 prostate): 1.3 µM
TGI (PC-3 prostate): 2.64 µM
GI50 (HT29 colon): 1.09 µM
TGI (HT29 colon): 2.49 µM
GI50 (CAKI-1 renal): 1.54 µM
TGI (CAKI-1 renal): 2.88 µM
GI50 (COLO 205 colon): 1.12 µM
TGI (COLO 205 colon): 2.68 µM
GI50 (UO-31 renal): 1.32 µM
TGI (UO-31 renal): 2.69 µM
GI50 (DU-145 prostate): 1.62 µM
TGI (DU-145 prostate): 3.03 µM
GI50 (M14 melanoma): 1.6 µM
TGI (M14 melanoma): 3.05 µM

O=c1oc(=O)c2oc3ccccc3oc1=2
TGI (IGROV1 ovarian): > 100 µM
TGI (MALME-3M melanoma): > 100 µM
TGI (HT29 colon): > 100 µM
TGI (HOP-62 NSCLC): > 100 µM
TGI (CAKI-1 renal): > 100 µM
TGI (COLO 205 colon): > 100 µM
TGI (UO-31 renal): > 100 µM
TGI (M14 melanoma): > 100 µM

O=C(NC1C2CC3CC(C2)CC1C3)c1cc(/C=C/c2ccccc2)[nH]c(=S)n1 (stereo not drawn)
TGI (IGROV1 ovarian): > 100 µM
TGI (MALME-3M melanoma): > 100 µM
TGI (HOP-62 NSCLC): > 100 µM
TGI (CAKI-1 renal): > 100 µM
TGI (COLO 205 colon): > 100 µM
TGI (UO-31 renal): > 100 µM
TGI (M14 melanoma): > 100 µM
